In patent US20240246968A1, “SMALL MOLECULE INHIBITORS OF KRAS G12C MUTANT” (Merck Sharp & Dohme LLC, priority 2021, published 2024):

Key:
[1] = target: T1, interaction between recombinant K-Ras4B G12C mutant protein and cRAF RAS-binding domain (cRAF-RBD) (Homo sapiens, UniProt P01116, G12C); test: Inhibitory activity on interaction between KRAS G12C and cRAF (Alpha technology); assay type: biochemical; settings: GMPPNP-bound KRAS G12C incubated with compound at 25° C. for 1 hour, then cRAF-RBD; Alpha signal
T1 construct: made in house; host or cells: E. coli
How it was run: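 Alpha readout of cRAF-RBD (aa 50-132) binding to KRAS G12C (aa 1-169) after 1.5 h RT, following 1 h, 25° C compound preincubation with GMPPNP-bound protein (pH 7.5 Tris, 1 mM MgCl2, TCEP, Tween 20). IC50 fitted from titrations, with GDP-bound KRAS as 100% and DMSO as 0% inhibition.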

[2] = target: Gppcp-bound recombinant K-Ras4B G12C mutant protein (amino acids 1-169, C51S/C80L/C118S) (Homo sapiens, UniProt P01116, C118S/C51S/C80L/G12C); test: KRASG12C binding assay (LC-MS, compound binding rate); settings: test compound final concentration 0.5 μM, 25° C., 1 hour
How it was run: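 Covalent adduct formation measured by deconvoluted intact-mass LC-MS after 1 h at 25 °C with compound at 0.5 μM final and 50 nM Gppcp-loaded KRAS G12C (residues 1-169, C51S/C80L/C118S). Buffer: TBS, 0.1 mM TCEP, 0.25 mM MgCl2, 50 μM Gppcp. Binding % = one-molecule adduct/(unbound + all adducts), binned A ≥80, B 60–80, C 40–60, D 20–40, E <20.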

MIA PaCa-2 cells = test: Growth inhibition activity on KRAS-G12C mutant cell line (MIA PaCa-2), CellTiter-Glo 3D; assay type: cell-based, human; settings: MIA PaCa-2, 3-day culture with compound
How it was run: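 Luminescence readout (CellTiter-Glo 3D) after 3 days of compound treatment at 37 °C, 5% CO2, 0.2% final DMSO, gave % growth inhibition versus no-compound wells, from which IC50 (nM) was derived; cells had been plated in 10% FBS RPMI1640 one day before dosing.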

SMILES	IC50 [1] [nM]	binding rate [2]	IC50 (MIA PaCa-2 cells; Homo sapiens, MIA PaCa-2, 72 h) [nM]	IC50 (MIA PaCa-2 cells) [nM]
Cc1nc2cc(-c3cccn4c(C(=O)c5cc(F)c(NC(=O)/C=C/CN[C@H]6CC[C@@H](F)CC6)c(F)c5)ccc34)c(C(F)(F)F)cc2n1C [Example 81]	70	A (A binding rate of 80% or more is rated “A”)	71	
Cc1nc2cc(-c3cccn4c(C(=O)c5cc(F)c(NC(=O)/C=C/CNC6CCOC(C)(C)C6)c(F)c5)ccc34)c(C(F)(F)F)cc2n1C (stereo not drawn) [Example 66]	70	A (A binding rate of 80% or more is rated “A”)	97	
CO[C@H]1CC[C@H](NC/C=C/C(=O)Nc2c(F)cc(C(=O)c3ccc4c(-c5c(Cl)cc6c(ncn6C)c5Cl)cccn34)cc2F)CC1 (single isomer, unassigned) [Example 15-2, (E)-N-(4-(8-(4,6-dichloro-1-methyl-1H-benzo[d]imidazol-5-yl)indolizine-3-carbonyl)-2,6-difluorophenyl)-4-(((1r,4r)-4-methoxycyclohexyl)amino)but-2-enamide]	190	A (A binding rate of 80% or more is rated “A”)		220
CO[C@H]1CC[C@H](NC/C=C/C(=O)Nc2c(F)cc(C(=O)c3ccc4c(-c5cc6[nH]c(=O)n(C)c6cc5C(F)(F)F)cccn34)cc2F)CC1 [Example 110, (E)-N-(2,6-difluoro-4-(8(1-methyl-2-oxo-6-(trifluoromethyl)-2,3-dihydro-1H-benzo[d]imidazol-5-yl)indolizine-3-carbonyl)phenyl)-4-(((1r,4r)-4-methoxycyclohexyl)amino)but-2-enamide]	80.7	A (A binding rate of 80% or more is rated “A”)	182	
Cc1nc2c(Cl)c(-c3cccn4c(C(=O)c5cc(F)c(NC(=O)/C=C/CNC(C)(C)C)c(F)c5)ccc34)c(C(F)(F)F)cc2n1C (single isomer, unassigned) [Example 56-2, (E)-4-(tert-butylamino)-N-(4-(8-(4-chloro-1,2-dimethyl-6-(trifluoromethyl)-1H-benzo[d]imidazol-5-yl)indolizine-3-carbonyl)-2,6-difluorophenyl)but-2-enamide]	21	A (A binding rate of 80% or more is rated “A”)		29
Cc1cc2c(nc(C)n2C)c(Cl)c1-c1cccn2c(C(=O)c3cc(F)c(NC(=O)/C=C/CNC(C)(C)C)c(F)c3)ccc12 (single isomer, unassigned) [Example 18-2, (E)-4-(tert-butylamino)-N-(4-(8-(4-chloro-1,2,6-trimethyl-1H-benzo[d]imidazol-5-yl)indolizine-3-carbonyl)-2,6-difluorophenyl)but-2-enamide]	220	A (A binding rate of 80% or more is rated “A”)		230
COCc1cc(C(=O)c2cc(F)c(NC(=O)/C=C/CN[C@H]3CC[C@H](OC)CC3)c(F)c2)n2cccc(-c3c(C)cc4c(nc(C)n4C)c3Cl)c12 [Example 103, (E)-N-(4-(8-(4-chloro-1,2,6-trimethyl-1H-benzo[d]imidazol-5-yl)-1-(methoxymethyl)indolizine-3-carbonyl)-2,6-difluorophenyl)-4-(((1r,4r)-4-methoxycyclohexyl)amino)but-2-enamide]	32	A (A binding rate of 80% or more is rated “A”)	74.8	
CO[C@H]1CC[C@H](NC/C=C/C(=O)Nc2c(F)cc(C(=O)c3ccc4c(-c5c(C(F)(F)F)cc6c(ncn6C)c5Cl)cccn34)cc2F)CC1 (single isomer, unassigned) [Example 28-2, (E)-N-(4-(8-(4-chloro-1-methyl-6-(trifluoromethyl)-1H-benzo[d]imidazol-5-yl)indolizine-3-carbonyl)-2,6-difluorophenyl)-4-(((1r,4r)-4-methoxycyclohexyl)amino)but-2-enamide]	800	A (A binding rate of 80% or more is rated “A”)		940
